{
  "source": "paper PMC5630639",
  "about": "(Scientific Reports, 2017)",
  "key": {"MGC-803 cells [1]": {"test_system": "MGC-803 cells", "test": "Western blot of EMT-related markers", "format": "cell-based, human", "procedure": "(§1) In a transwell test, the average numbers of migrated cells in fields of control, 0.1 and 0.2 μM 28 treated MGC-803 cells were 29.4, 22.4 and 16.6, respectively (Fig. 6B and C). Based on the results from these tests, we next examined the protein expression of EMT-related makers such as E-cadherenin, N-cadherenin, ZO-1 and Vementin[55]."}, "MGC-803 cells [2]": {"test_system": "MGC-803 cells", "test": "Transwell cell migration assay", "format": "cell-based, human", "settings": "24 h (control 29.4)", "procedure": "as §1\nThe test was performed in a transwell plate (Corning). MGC-803 cells were added to the upper chamber of a transwell plate. Control and different concentrations of 28 solutions were added to both upper and bottom chambers. Then the transwell plate was cultured at 37 °C in a humidified incubator containing 5% CO2 for 24 h. The next day, all contents in the upper chamber were removed and wiped by cotton buds. Alcohol was used to fix, and the crystal violet was used to stain the transwell for 30 min. After washed by PBS the cell chambers were observed and photos taken. The cell number of the migrated cells through the transwell was calculated by counting 5 visual fields of each group (P < 0.05)[55],[56]."}, "MGC-803 cells [3]": {"test_system": "MGC-803 cells", "test": "Cell cycle analysis by flow cytometry", "format": "cell-based, human", "settings": "for G2/M population: 24 h (Fig. 3A)", "procedure": "MGC-803 cells were incubated in the absence and presence of 28. Subsequently, the cells were fixed with 70% alcohol in PBS. The fixed cells were incubated with RNase (1 µg/mL) propidium iodide (50 µg/mL) for 2 h. Flow cytometry analysis was performed using BD FACS (Becton Dickinson, San Jose, CA, USA)."}, "A549 cells": {"test_system": "A549 cells", "test": "CCK-8 proliferation assay, A549", "format": "cell-based, human", "settings": "Homo sapiens, A549; 48 h, CCK-8, mean ± SD", "procedure": "(§2) All synthesized β-lactam-azide derivatives were evaluated for their antiproliferative activity against three cancer cell lines (MGC-803, MCF-7, A549) using CCK-8 proliferation assay. The well-known anticancer drug CA-4P was used as a control[36],[37].\n(§3) MGC-803 cell line was obtained from the Chinese Academy of Sciences (Shanghai, China). MCF-7 and A549 were from the National Cell Center, China. MGC-803 cells were cultured in DMEM culture medium (DMEM, Biological Industries, Kibbutz Beit Haemek, Israel). A549 and MCF-7 cells were cultured in 1640 medium (1640, Biological Industries, Kibbutz Beit Haemek, Israel). All medium were supplemented with 10% fetal bovine serum, 100 U/ml penicillin (North China Pharmaceutical group Co.), and 100 µg/ml streptomycin (North China Pharmaceutical group Co.). All cells were cultured at 37 °C in a humidified incubator containing 5% CO2.\nSynthesized analogues used in the study were dissolved in 100% cell culture grade DMSO and the final concentration of DMSO as <0.1% for testing on cancer cell lines. Cytotoxicity assays were performed on the human gastric carcinoma cell line MGC-803, the human mammary carcinoma cell line MCF-7, the human lung carcinoma cell line A549. Cells (3500–5000/well) were seeded into 96-well plates in 100 µL of culture medium. The cells were treated in triplicate with a gradient concentration of testing compounds and incubated at 37 °C, 5% CO2 for 48 h. For all cell lines, CCK-8 assay was performed to measure cytotoxic effects. The absorbance was measured using a microplate reader (BioTek Instrument, Inc. Vermont, USA) with a test wavelength of 450 nm. The absorbance levels were corrected against untreated control absorbance values. All experiments were performed in triplicate and SPSS17.0 was used for data analysis to obtain IC50 values."}, "[4]": {"test_system": "three cancer cell lines (MGC-803, MCF-7, A549)", "test": "CCK-8 proliferation assay, three cancer cell lines together", "format": "cell-based", "settings": "Homo sapiens, 48 h, read-out: IC50 values toward three cancer cell lines", "procedure": "as §2, §3\nSynthesized analogues used in the study were dissolved in 100% cell culture grade DMSO and the final concentration of DMSO as <0.1% for testing on cancer cell lines. […] The absorbance was measured using a microplate reader (BioTek Instrument, Inc. Vermont, USA) with a test wavelength of 450 nm. The absorbance levels were corrected against untreated control absorbance values. […]"}, "MGC-803 cells [5]": {"test_system": "MGC-803 cells", "test": "Cell scarification assay", "format": "cell-based, human", "settings": "time-dependent and concentration-dependent", "procedure": "as §1\nMGC-803 cells were seeded in 6-well plate until cells grew to confluence. Tips were used to make a scratch on cells. Control and 28 contained culture media without fetal bovine serum were added subsequently after 3 times of washing by PBS. Then the cells were cultured at 37 °C in a humidified incubator containing 5% CO2 and photos taken at 0, 16, 24 and 48 h, respectively."}, "[6]": {"test_system": "colchicine-binding site of β-tubulin", "test": "EBI competition assay", "format": "cell-based, human", "settings": "preincubation 0.25 and 5 μM, 2 h; EBI 100 μM", "method": "Six-well plates were seeded with MGC-803 cells at 5 × 10^5 cells per well. […] After 2 h, the cells were harvested and cell extracts were prepared for Western blot analysis. 20 μg of proteins was subjected to gel electrophoresis using 10% polyacrylamide gels. The proteins were transferred onto PVDF membranes, then blocked by 5% nonfatmilk for 1 h, and subsequently incubated with anti-β-tubulin antibody for 16 h at 4 °C. Next, the membranes were washed extensively and immunoreactive proteins were finally detected by chemiluminescence."}, "[7]": {"test_system": "interphase microtubules in MGC-803 cells", "test": "Immunofluorescence staining of tubulin", "format": "cell-based, human", "settings": "24 h", "procedure": "As the microtubule system plays a vital role in the maintenance of cell shape and basic cellular functions, an immunofluorescence staining assay was performed to study whether compound 28 could disrupt the microtubule dynamics in living cells.\nCell climbing slices were sterilized and placed on the bottom of a 24-well plate for 24 h before MGC-803 cells were incubated in DMSO, different concentrations of 28 or CA-4P solutions were added. The next day the cell climbing slices were fixed by 4% paraformaldehyde for 15 min after washed by PBS for 3 times. 0.5% Triton-X-100 was added and shaked for 20 min. 0.1% BSA was used to block for 30 min and then removed. The cell climbing slices were added α-tubulin antibody (1:100) and incubated overnight at 4 °C in humid box. On the third day the humid box was taken out and balanced at 37 °C for 30 min. The cell climbing slices were washed by PBST for 3 times for each of 3 minutes and coated with FITC antibody (1:500) in a dark place for 1 h at room temperature. DAPI was used to re-stained for 5 min and then removed. The cell climbing slices were sealing by an anti-fluorescence quenching agent and images collected by Laser scanning confocal microscope (Nikon, Japan)."}},
  "data": [
    {"smiles": "COc1cc(N2C(=O)[C@H](c3cccs3)[C@H]2c2cccc(N=[N+]=[N-])c2)cc(OC)c1OC", "note": "(relative stereo) [Compound 28, trans-4-(3-azidophenyl)-3-(thiophen-2-yl)-1-(3,4,5-trimethoxyphenyl)azetidin-2-one]", "values": [
      {"measurement": "expression of E-cadherin and ZO-1", "setting": "MGC-803 cells [1]", "result": "up-regulated"},
      {"measurement": "expression of N-cadherin and vimentin", "setting": "MGC-803 cells [1]", "result": "down-regulated"},
      {"measurement": "average number of migrated cells in fields", "setting": "MGC-803 cells [2]; 0.1 μM", "result": 22.4},
      {"measurement": "average number of migrated cells in fields", "setting": "MGC-803 cells [2]; 0.2 μM", "result": 16.6},
      {"measurement": "cells at the G2/M phase", "setting": "MGC-803 cells [3]; 0.1 μM, 12 h (Fig. 3C)", "result": 12.63, "unit": "%"},
      {"measurement": "G2/M population", "setting": "MGC-803 cells [3]; 0.1 μM", "result": 14.13, "unit": "%"},
      {"measurement": "cells at the G2/M phase", "setting": "MGC-803 cells [3]; 0.1 μM, 36 h (Fig. 3C)", "result": 44.59, "unit": "%"},
      {"measurement": "G2/M population", "setting": "MGC-803 cells [3]; 0.2 μM", "result": 23.42, "unit": "%"},
      {"measurement": "G2/M population", "setting": "MGC-803 cells [3]; 0.3 μM", "result": 44.37, "unit": "%"},
      {"measurement": "IC50", "setting": "A549 cells", "result": "507 ± 52", "unit": "nM"},
      {"measurement": "IC50", "setting": "[4]", "result": "106 to 507", "unit": "nM"},
      {"measurement": "distances of scratches compared to control", "setting": "MGC-803 cells [5]", "result": "obviously increased"},
      {"measurement": "formation of the EBI: β-tubulin adduct", "setting": "[6]", "result": "dose-dependently prevented the formation of the EBI: β-tubulin adduct"},
      {"measurement": "depolymerization of interphase microtubules", "setting": "[7]; 0.075 μM", "result": "moderately depolymerized"},
      {"measurement": "depolymerization of interphase microtubules", "setting": "[7]; 0.3 μM", "result": "much stronger"}
    ]}
  ]
}
